Assay results as given in PMC7901654, “Bioisosteric Discovery of NPA101.3, a Second-Generation RET/VEGFR2 Inhibitor Optimized for Single-Agent Polypharmacology” (Journal of Medicinal Chemistry, 2020).

What was measured:
[1] = system: NIH3T3 HRAS/G12V cells; experiment: Phosphorylation and signalling Western blot in NIH3T3 HRAS/G12V cells; type: cell-based; settings: up to a dose of 100.0 nM
Procedure: Protein lysates were prepared according to standard procedures. Briefly, cells were lysed in a buffer containing 50 mM N-2-hydroxyethylpiperazine-N′-2-ethanesulfonic acid (HEPES; pH 7.5), 1% (v/v) Triton X-100, 150 mM NaCl, 5 mM EGTA, 50 mM NaF, 20 mM sodium pyrophosphate, 1 mM sodium vanadate, 2 mM phenylmethanesulfonyl fluoride (PMSF), and 1 μg/mL aprotinin. Lysates were clarified by centrifugation at 10000g for 15 min. […] Immune complexes were detected with the enhanced chemiluminescence kit (Amersham Pharmacia Biotech, Little Chalfont, U.K.). Anti-phospho-SHC (#Y317), which recognizes SHC protein when phosphorylated on Y317, was from Upstate Biotechnology Inc. (Lake Placid, NY). Anti-SHC (H-108) was from Santa Cruz Biotechnology (Santa Cruz, CA). Anti-MAPK (9101) and anti-phospho-MAPK (9102), specific for p42/44MAPK (ERK1/2) phosphorylated on Thr202/Tyr204, antibodies were from Cell Signaling Technologies (Danvers, MA). Anti-phospho-VEGFR2/KDR (2478), specific for VEGFR2/KDR phosphorylated on Tyr1175, and anti-VEGFR2/KDR (2479) were from Cell Signaling Technologies. Anti-phospho-p70S6K (9234), specific for p70S6K phosphorylated on Thr389, and anti-p70S6K (2708) were from Cell Signaling Technologies. […]

[2] = biological target: T1, hERG (Homo sapiens, UniProt Q12809); experiment: hERG patch-clamp assay; type: cell-based
T1 construct: host or cells: HEK293, tetracycline-inducible hERG
T1 sequence (Q12809 whole entry): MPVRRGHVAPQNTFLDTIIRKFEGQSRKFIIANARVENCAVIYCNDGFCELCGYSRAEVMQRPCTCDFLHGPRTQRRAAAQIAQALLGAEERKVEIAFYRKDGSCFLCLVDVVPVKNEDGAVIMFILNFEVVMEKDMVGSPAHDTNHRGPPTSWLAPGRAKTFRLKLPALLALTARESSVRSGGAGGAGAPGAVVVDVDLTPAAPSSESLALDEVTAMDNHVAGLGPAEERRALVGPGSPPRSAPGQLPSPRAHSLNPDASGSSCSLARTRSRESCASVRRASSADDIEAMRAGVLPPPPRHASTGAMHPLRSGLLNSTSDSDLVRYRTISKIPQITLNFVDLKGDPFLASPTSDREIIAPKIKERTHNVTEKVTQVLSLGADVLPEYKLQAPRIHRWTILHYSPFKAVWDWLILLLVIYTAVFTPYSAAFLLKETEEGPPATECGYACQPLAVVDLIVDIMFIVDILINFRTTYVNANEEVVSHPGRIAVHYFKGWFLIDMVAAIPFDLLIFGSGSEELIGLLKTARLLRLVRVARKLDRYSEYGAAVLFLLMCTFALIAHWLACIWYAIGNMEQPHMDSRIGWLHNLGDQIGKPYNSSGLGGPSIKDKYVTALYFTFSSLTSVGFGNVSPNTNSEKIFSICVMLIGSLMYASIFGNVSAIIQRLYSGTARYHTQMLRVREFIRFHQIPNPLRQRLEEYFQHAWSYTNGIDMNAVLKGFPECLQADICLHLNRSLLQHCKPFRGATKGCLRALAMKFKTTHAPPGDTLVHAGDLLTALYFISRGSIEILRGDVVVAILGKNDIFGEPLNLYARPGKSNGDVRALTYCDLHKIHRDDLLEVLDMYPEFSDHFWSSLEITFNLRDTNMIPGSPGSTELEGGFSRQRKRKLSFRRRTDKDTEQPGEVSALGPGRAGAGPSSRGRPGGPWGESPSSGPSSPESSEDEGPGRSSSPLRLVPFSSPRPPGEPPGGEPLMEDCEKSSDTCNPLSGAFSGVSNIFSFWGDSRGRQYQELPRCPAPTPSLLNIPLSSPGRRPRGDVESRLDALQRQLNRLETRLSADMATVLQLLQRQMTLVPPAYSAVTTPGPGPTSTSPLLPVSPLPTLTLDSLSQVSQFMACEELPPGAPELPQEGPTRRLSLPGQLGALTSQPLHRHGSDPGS

[3] = biological target: T2, ALK (Homo sapiens, UniProt Q9UM73); experiment: KinomeScan panel screen; type: binding; settings: 100 nM, read-out: Percent Control
T2 construct: purchased DiscoveRx KINOMEscan (TRKA and CSF1R IC50 enzymes from Invitrogen)
T2 sequence (Q9UM73 19-1620): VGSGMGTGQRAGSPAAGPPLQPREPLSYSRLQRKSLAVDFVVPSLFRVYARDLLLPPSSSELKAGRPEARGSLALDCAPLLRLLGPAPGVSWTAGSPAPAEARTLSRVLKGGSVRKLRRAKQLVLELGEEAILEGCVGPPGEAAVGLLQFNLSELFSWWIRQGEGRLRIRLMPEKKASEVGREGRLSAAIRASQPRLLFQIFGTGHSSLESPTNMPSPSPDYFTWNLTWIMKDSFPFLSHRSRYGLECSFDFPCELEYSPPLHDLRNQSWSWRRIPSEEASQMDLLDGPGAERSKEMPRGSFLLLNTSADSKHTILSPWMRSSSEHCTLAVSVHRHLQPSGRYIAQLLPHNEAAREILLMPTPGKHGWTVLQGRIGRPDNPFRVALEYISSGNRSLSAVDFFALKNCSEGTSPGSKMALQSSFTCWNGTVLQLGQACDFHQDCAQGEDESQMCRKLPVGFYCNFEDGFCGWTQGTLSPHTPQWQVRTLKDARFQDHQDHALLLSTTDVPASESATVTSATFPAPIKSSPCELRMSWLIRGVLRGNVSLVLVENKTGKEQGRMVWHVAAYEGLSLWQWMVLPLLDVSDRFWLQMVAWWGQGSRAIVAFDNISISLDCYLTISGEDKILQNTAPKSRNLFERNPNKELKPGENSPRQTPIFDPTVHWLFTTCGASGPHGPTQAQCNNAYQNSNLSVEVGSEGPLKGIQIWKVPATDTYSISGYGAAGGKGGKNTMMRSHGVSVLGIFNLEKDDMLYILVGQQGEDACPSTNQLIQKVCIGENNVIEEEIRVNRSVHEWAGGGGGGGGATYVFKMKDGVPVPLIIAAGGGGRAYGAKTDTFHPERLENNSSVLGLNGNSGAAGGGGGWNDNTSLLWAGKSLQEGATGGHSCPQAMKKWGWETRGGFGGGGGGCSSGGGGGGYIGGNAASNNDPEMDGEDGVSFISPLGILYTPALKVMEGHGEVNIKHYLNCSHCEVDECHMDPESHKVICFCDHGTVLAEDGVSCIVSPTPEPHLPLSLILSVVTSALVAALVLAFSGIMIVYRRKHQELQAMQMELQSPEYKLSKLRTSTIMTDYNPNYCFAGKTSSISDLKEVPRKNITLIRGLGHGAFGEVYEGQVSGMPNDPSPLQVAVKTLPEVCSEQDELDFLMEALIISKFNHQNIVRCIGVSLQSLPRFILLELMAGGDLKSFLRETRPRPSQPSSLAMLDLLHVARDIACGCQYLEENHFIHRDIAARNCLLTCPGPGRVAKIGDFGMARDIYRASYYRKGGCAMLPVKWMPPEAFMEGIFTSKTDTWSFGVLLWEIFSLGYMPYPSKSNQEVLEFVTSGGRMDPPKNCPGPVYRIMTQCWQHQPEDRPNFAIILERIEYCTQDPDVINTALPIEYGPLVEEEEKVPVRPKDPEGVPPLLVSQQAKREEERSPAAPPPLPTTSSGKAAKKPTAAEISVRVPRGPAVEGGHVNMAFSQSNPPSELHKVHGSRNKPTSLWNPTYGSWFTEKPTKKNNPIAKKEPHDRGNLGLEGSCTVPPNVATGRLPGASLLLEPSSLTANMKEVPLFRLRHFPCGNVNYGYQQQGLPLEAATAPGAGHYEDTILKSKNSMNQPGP

[4] = biological target: T3, MEK1 (Homo sapiens, UniProt Q02750); experiment: KinomeScan panel screen; type: binding; settings: MEK1, 100 nM; read-out: Percent Control
T3 construct: purchased DiscoveRx KINOMEscan (TRKA and CSF1R IC50 enzymes from Invitrogen)
T3 sequence (Q02750 whole entry): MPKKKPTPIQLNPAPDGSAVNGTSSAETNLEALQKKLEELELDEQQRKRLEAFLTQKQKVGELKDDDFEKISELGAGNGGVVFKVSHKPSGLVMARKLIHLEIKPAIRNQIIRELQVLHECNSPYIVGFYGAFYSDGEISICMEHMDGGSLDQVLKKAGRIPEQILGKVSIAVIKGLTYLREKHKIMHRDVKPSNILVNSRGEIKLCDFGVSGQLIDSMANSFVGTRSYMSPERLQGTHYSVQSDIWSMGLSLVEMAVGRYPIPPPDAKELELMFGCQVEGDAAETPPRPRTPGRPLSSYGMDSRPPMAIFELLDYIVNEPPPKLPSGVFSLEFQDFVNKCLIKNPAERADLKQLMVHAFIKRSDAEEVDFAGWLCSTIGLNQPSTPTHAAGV

[5] = biological target: T4, LYN (Homo sapiens, UniProt P07948); experiment: KinomeScan panel screen; type: binding; settings: 100 nM
T4 construct: purchased DiscoveRx KINOMEscan (TRKA and CSF1R IC50 enzymes from Invitrogen)
T4 sequence (P07948 whole entry): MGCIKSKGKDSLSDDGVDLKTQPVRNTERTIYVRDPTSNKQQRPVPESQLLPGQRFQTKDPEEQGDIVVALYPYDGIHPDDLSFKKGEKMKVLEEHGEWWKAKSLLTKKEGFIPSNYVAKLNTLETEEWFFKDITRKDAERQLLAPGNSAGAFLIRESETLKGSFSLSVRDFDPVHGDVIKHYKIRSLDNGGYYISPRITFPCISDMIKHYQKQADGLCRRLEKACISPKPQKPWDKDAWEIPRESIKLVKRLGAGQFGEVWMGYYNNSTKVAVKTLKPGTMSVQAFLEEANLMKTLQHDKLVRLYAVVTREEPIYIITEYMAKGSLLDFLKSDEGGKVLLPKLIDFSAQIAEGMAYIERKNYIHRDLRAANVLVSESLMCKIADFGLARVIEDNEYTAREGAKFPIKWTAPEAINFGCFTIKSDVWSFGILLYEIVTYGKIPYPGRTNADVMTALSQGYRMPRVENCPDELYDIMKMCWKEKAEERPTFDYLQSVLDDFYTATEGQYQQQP

[6] = biological target: T5, CTK (Homo sapiens, UniProt P42679); experiment: KinomeScan panel screen; type: binding; settings: 100 nM, read-out: Percent Control
T5 construct: purchased DiscoveRx KINOMEscan (TRKA and CSF1R IC50 enzymes from Invitrogen)
T5 sequence (P42679 whole entry): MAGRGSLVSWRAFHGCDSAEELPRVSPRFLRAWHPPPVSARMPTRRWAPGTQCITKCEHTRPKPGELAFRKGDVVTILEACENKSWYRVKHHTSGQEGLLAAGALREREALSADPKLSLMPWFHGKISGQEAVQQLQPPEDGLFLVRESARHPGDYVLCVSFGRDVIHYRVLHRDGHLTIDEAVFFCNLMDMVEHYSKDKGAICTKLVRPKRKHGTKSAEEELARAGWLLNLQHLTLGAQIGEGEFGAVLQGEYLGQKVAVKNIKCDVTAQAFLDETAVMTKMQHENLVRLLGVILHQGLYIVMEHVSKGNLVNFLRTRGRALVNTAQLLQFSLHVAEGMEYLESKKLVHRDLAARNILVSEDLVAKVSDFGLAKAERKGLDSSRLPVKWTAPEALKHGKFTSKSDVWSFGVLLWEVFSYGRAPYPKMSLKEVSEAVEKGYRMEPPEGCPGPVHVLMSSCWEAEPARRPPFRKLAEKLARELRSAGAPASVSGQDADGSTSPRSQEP

With CC(C)(C)c1cc(NC(=O)Cc2ccc(-n3cnc4cc(-c5ccc(S(C)(=O)=O)cc5)ccc43)cc2)no1 [NPA101.3] the effect on phosphorylation/signalling [1] was “virtually no effect”, the “hERG IC50 relative to RET IC50” value ([2]; hERG 7.57 μM vs RET 1 nM) was > 7000 fold and the inhibition at 0.1 µM ([2]; human, HEK293 cells expressing inducible hERG, 0.1 µM) was 0.41%. It also gave an inhibition at 1 µM ([2]; human, HEK293 cells expressing inducible hERG, 1 µM) of 14.6%, an inhibition at 10 µM ([2]; human, HEK293 cells expressing inducible hERG, 10 µM) of 55.9% and a remaining binding at 0.1 µM [3] of 93%. The remaining binding at 0.1 µM [4] was 92%, the “binding (% bound)” value [5] was > 90 % bound and the remaining binding at 0.1 µM ([5]; LYN, read-out: Percent Control) was 2.8%. It also gave a remaining binding at 0.1 µM [6] of 56%.
